{"source": "patent US20210161897A1", "about": "“EPIDERMAL GROWTH FACTOR RECEPTOR TYROSINE KINASE INHIBITORS FOR THE TREATMENT OF CANCER” (AstraZeneca AB, priority 2019, published 2021)", "system": "PC9 xenograft tumours", "test": "PC9 xenograft antitumour efficacy and regrowth", "type": "in vivo, female SCID mice", "protocol": "PC9 xenograft tumours were established by subcutaneous implantation of 5×10^6 cells per animal, in 100 μl of cell suspension including 50% matrigel, into the dorsal left flank of female SCID mice. All mice were older than 6 weeks at the time of cell implant. Tumor growth was monitored twice weekly by bilateral calliper measurements and tumour volume calculated using elliptical formula (pi/6×width×width×length).\nMice were randomized into vehicle or treatment groups with approximate mean start size of 0.2 cm3. Randomization for animal studies was based on initial tumour volumes to ensure equal distribution across groups. Mice were dosed daily by oral gavage with vehicle or 25 mg/kg osimertinib or once weekly by intravenous with 25 mg/kg AZD2811 or with the combination of osimertinib and AZD2811. Note that all treatments were stopped on day 28. However, tumour growth was followed for approximately 200 additional days."}
{"smiles": "C=CC(=O)Nc1cc(Nc2nccc(-c3cn(C)c4ccccc34)n2)c(OC)cc1N(C)CCN(C)C", "note": "[osimertinib, N-(2-{2-dimethylaminoethyl-methylamino}-4-methoxy-5-{[4-(1-methylindol-3-yl)pyrimidin-2-yl]amino}phenyl) prop-2-enamide]", "values": [{"measurement": "tumour shrinkage during 4-week treatment", "setting": "monotherapy, 25 mg/kg, osimertinib daily oral, AZD2811 once weekly intravenous", "result": "complete shrinkage"}, {"measurement": "time at which tumour regrowth was observed", "setting": "osimertinib 25 mg/kg daily oral gavage for 28 days, then treatment stopped", "result": "around 80 days"}]}
